Assay results reported in patent publication US20020013306A1, “TERPYRIDINE-PLATINUM(II) COMPLEXES” (priority 1996, published 2002).

Legend:
[1] = system: CH1 human ovarian carcinoma cell line; test: 96 h growth inhibition, sulforhodamine B assay, CH1; type: cell-based; settings: 96 h exposure, v = variable (mean)
[2] = system: A2780cis^R human ovarian carcinoma cell line (cisplatin resistant); test: 96 h growth inhibition, sulforhodamine B assay, A2780cisR; type: cell-based; settings: for IC50: 96 h exposure, growth inhibition, v = variable (mean); for RF resistance factor: IC50 resistant line/IC50 parent line: A2780cis^R / A2780
[3] = system: SKOV3 human ovarian carcinoma cell line; test: 96 h growth inhibition, sulforhodamine B assay, SKOV3; type: cell-based; settings: 96 h exposure, v = variable (mean)
T. cruzi (MHOM/BR/00/Y) = test: Trypanosoma cruzi in mouse peritoneal macrophages; type: cell-based
Procedure: Trypanosoma cruzi: […] Drug activity was determined from the % of infected macrophages in treated cultures. Nifurtimox was used as the positive control.

[4] = system: A2780 human ovarian carcinoma cell line; test: 96 h growth inhibition, sulforhodamine B assay, A2780; type: cell-based; settings: 96 h exposure, v = variable (mean)
[5] = system: CH1cis^R human ovarian carcinoma cell line (cisplatin resistant); test: 96 h growth inhibition, sulforhodamine B assay, CH1cisR; type: cell-based; settings: for IC50: 96 h exposure, growth inhibition, v = variable (mean); for RF resistance factor: IC50 resistant line/IC50 parent line: CH1cis^R / CH1
[6] = system: CH1dox^R human ovarian carcinoma cell line (doxorubicin resistant); test: 96 h growth inhibition, sulforhodamine B assay, CH1doxR; type: cell-based; settings: for IC50: 96 h exposure, growth inhibition; for RF resistance factor: IC50 resistant line/IC50 parent line: CH1dox^R / CH1
[7] = system: T. brucei (S427) bloodstream trypomastigotes; test: Trypanosoma brucei bloodstream trypomastigote culture; type: cell-based
[8] = system: P falciparum (chloroquin resistant strain K1); test: In vitro antimalarial activity, chloroquine resistant K1; settings: for % Inhibition (compound duplicates), K1 P. falciparum: duplicates (1),(2)
Procedure: Plasmodium falciparum: P falciparum (chloroquin resistant strain K1) was cultured at 37° C. in a 5% suspension of infected so erythrocytes (group A Rh^+) in complete medium as described by E L Elueze, S L Croft and D C Warhurst, J Antimicrobial Chemotherapy, 1996, 37, 511-518. The in vitro antimalarial activity of compounds were likewise determined according to their protocol. Mefloquin was used as the positive control.”

| SMILES | IC50 [1] [µM] | IC50 [2] [µM] | IC50 [3] [µM] | % Inhibition, Trypanosoma cruzi (T. cruzi (MHOM/BR/00/Y); 1 μM) [%] | % Inhibition, Trypanosoma cruzi (T. cruzi (MHOM/BR/00/Y); 3 μM) [%] | % Inhibition, Trypanosoma cruzi (T. cruzi (MHOM/BR/00/Y); 10 μM) [%] | IC50 [4] [µM] | IC50 [5] [µM] | RF resistance factor: IC50 resistant line/IC50 parent line [5] | IC50 [6] [µM] | RF resistance factor: IC50 resistant line/IC50 parent line [6] | % Inhibition, Trypanosoma brucei ([7]; 1 μM) [%] | % Inhibition, Trypanosoma brucei ([7]; 3 μM) [%] | % Inhibition, Trypanosoma brucei ([7]; 10 μM) [%] | % Inhibition, Trypanosoma brucei ([7]; 30 μM) [%] | RF resistance factor: IC50 resistant line/IC50 parent line [2] | % Inhibition, Trypanosoma brucei ([7]; 0.1 μM) [%] | % Inhibition, Trypanosoma brucei ([7]; 0.3 μM) [%] | % Inhibition, Trypanosoma cruzi (T. cruzi (MHOM/BR/00/Y); 30 μM) [%] | further results |
| --- | --- | --- | --- | --- | --- | --- | --- | --- | --- | --- | --- | --- | --- | --- | --- | --- | --- | --- | --- | --- |
| F[B-](F)(F)F.F[B-](F)(F)F.Fc1cccc[n+]1[Pt-2]12[n+]3ccccc3-c3cccc([n+]31)-c1cccc[n+]12 [Compound A4] | 15.5 | > 100 | > 100 | 3.0 | 6.0 | 93 | 21.5 | 14 | 0.9 | 5.4 | 0.3 | 100 | 100 | 100 | 100 | – | – | – | – | – |
| F[B-](F)(F)F.F[B-](F)(F)F.Fc1ccc[n+]([Pt-2]23[n+]4ccccc4-c4cccc([n+]42)-c2cccc[n+]23)c1 [Compound A5] | 17 | > 100 | > 100 | 2.0 | 6.5 | 43.8 | 19.5 | 17 | 1 | 6.1 | 0.3 | 100 | 100 | 100 | 100 | – | – | – | – | – |
| F[B-](F)(F)F.F[B-](F)(F)F.c1cc[n+]2c(c1)-c1cccc3[n+]1[Pt-2]2([n+]1ccsc1)[n+]1ccccc1-3 [Compound A6] | 17 | > 100 | > 100 | 0 | 0 | 5.0 | 18.6 | 17 | 1 | 6.3 | 0.4 | 100 | 100 | 100 | 100 | 1 | 75.4 | 100 | – | – |
| CC#[N+][Pt-2]12[n+]3ccccc3-c3cccc([n+]31)-c1cccc[n+]12.F[B-](F)(F)F.F[B-](F)(F)F [Compound A8] | 18 | 100 | > 100 | 0 | 0 | 4.0 | 50 | 18.5 | 1 | 13 | 0.7 | 100 | 100 | 100 | 100 | 2 | – | – | 38.0 | – |
| F[B-](F)(F)F.F[B-](F)(F)F.[NH3+][Pt-2]12[n+]3ccccc3-c3cccc([n+]31)-c1cccc[n+]12 [Compound A12] | 5.2 | 23.5 | 15 | 72.3 | 100 | 100 | 11.5 | 4.5 | 0.9 | 3.75 | 0.7 | 100 | 100 | 100 | 100 | 2 | 83.8 | 98.5 | 100 | – |
| Cc1cc[n+]([Pt-2]23[n+]4ccccc4-c4cc(-c5ccc(Br)cc5)cc([n+]42)-c2cccc[n+]23)cc1.F[B-](F)(F)F.F[B-](F)(F)F [Q] | 5 | 29.5 | > 100 | – | – | – | 39 | 5.8 | 1.2 | 1.05 | 0.2 | 100 | 100 | 100 | 100 | 0.8 | 0 | 100 | – | % Inhibition (compound duplicates), K1 P. falciparum ([8]; Concn. 15 μM): 97.0%; % Inhibition (compound duplicates), K1 P. falciparum ([8]; Concn. 30 μM): 99.8%; % Inhibition (compound duplicates), K1 P. falciparum ([8]; Concn. 75 μM): 98.6%; % Inhibition (compound duplicates), K1 P. falciparum ([8]; Concn. 375 μM): 60.8%; % Inhibition (compound duplicates), K1 P. falciparum ([8]; Concn. 1875 μM): 46.1%; % Inhibition (compound duplicates), K1 P. falciparum ([8]; Concn. 09375 μM): 0%; % Inhibition (compound duplicates), K1 P. falciparum ([8]; Concn. 046875 μM): 0%; % Inhibition (compound duplicates), K1 P. falciparum ([8]; Concn. 0234375 μM): 0%; IC50 ([8]; read-out: IC50 (avg), K1 P. falciparum, average of duplicates): 2.4 µM |
| Cc1ccncc1.F[B-](F)(F)F.F[B-](F)(F)F.NNc1cc(-c2ccccn2)nc(-c2ccccn2)c1.[Pt+2] [R, (4-Picoline)(4′-Hydrazino-2,2′:6′,2″-Terpyridine) Platinum (II) Tetrafluoroborate] | 16 | 89 | 80 | 60.8 | 57.7 | 65.8 | 39 | 13.5 | 0.8 | 5.3 | 0.3 | 100 | 100 | 100 | 100 | 2.3 | 4.9 | 29.6 | 60.1 | – |
| CN(N)c1cc(-c2ccccn2)nc(-c2ccccn2)c1.Cc1ccncc1.F[B-](F)(F)F.F[B-](F)(F)F.[Pt+2] [S, (4-Picoline)(4′-(1 -Methylhydrazino)-2,2′:6′,2″-Terpyridine) Platinum (II) Tetra-fluoroborate] | 65 | 62 | > 100 | 60.9 | 53.3 | 53.3 | 18 | > 100 | – | 14.5 | 0.2 | 44.4 | 98.3 | 100 | 100 | 3.4 | 0 | 22.5 | 334 | – |
| Cc1ccncc1.Cc1ccncc1.F[B-](F)(F)F.F[B-](F)(F)F.F[B-](F)(F)F.F[B-](F)(F)F.O=C(CCCCC(=O)NNc1cc(-c2ccccn2)nc(-c2ccccn2)c1)NNc1cc(-c2ccccn2)nc(-c2ccccn2)c1.[Pt+2].[Pt+2] [V, Adipoyl-Linked-Bis[4-Picoline(4′-Hydrazino-2,2′:6′,2″-Terpyridine) Platinum(II)] Tetrafluoroborate] | 48 | 40 | 98 | 0 | 0 | 0 | 19 | 42 | 0.9 | 40 | 0.8 | 0 | 100 | 100 | 100 | 2.1 | 0 | 0 | 0 | – |
| CN(NC(=O)CCCCC(=O)NN(C)c1cc(-c2ccccn2)nc(-c2ccccn2)c1)c1cc(-c2ccccn2)nc(-c2ccccn2)c1.Cc1ccncc1.Cc1ccncc1.F[B-](F)(F)F.F[B-](F)(F)F.F[B-](F)(F)F.F[B-](F)(F)F.[Pt+2].[Pt+2] [W, Adipoyl-Linked-Bis[4-Picoline(4′-(1 -Methylhydrazino)-2,2′:6′,2″-Terpyridine) Platinum(II)] Tetrafluoroborate] | 48 | 10.5 | > 100 | 0 | 0 | 0 | 17 | 46 | 0.9 | 58 | 1.2 | 0 | 0 | 59.8 | 100 | 0.6 | 0 | 0 | 8.3 | – |
